The text below walks through data of PMC8949893, “Chemical Synthesis, Pharmacokinetic Properties and Biological Effects of JM-00266, a Putative Non-Brain Penetrant Cannabinoid Receptor 1 Inverse Agonist” (International Journal of Molecular Sciences, 2022).

Data set [1] is described as follows: Plasma kinetic profile after i.p., oral or intravenous administration. It is filed as in vivo, mice. Particulars: for Time of peak drug plasma concentration / Maximal drug plasma concentration: mice; for Maximal drug plasma concentration: n = 4. The protocol:
At 1, 2, 4 and 8 h post-administration, animals were killed by cervical dislocation and blood was collected from the vena cava into tubes containing heparin and centrifuged immediately at 6500× g for 10 min at 4 °C. For determination of tissue distribution, brain, liver and adipose tissue were collected 4 h post-gavage. Plasma and tissue samples were directly extracted for further analysis by Liquid chromatography coupled to tandem mass spectrometry (LC-MS/MS).
Tissues were homogenized with a mini-bead beater (BioSpec Products, Bartlesville, OK) in 10 volumes of acetonitrile containing 15 ng of internal standard, JM-00252. Blood samples were centrifuged at 6500× g during 10 min 4 °C and 5 µL of plasma were diluted in 10 volumes of acetonitrile containing 15 ng of internal standard. Then, each homogenate of tissue or plasma was centrifuged for 10 min at 6500× g and the supernatant was recovered and carefully transferred to new glass tubes. Finally, the extract was injected into a 1200 LC system coupled to a 6460-QqQ MS/MS system equipped with a JetStream ESI source (Agilent technologies, Les Ulis, France). Separation was achieved on a Poroshell 120 EC-C8 2.1 mm × 100 mm, 2.7 µm column (Agilent technologies) at a flow rate of 0.4 mL.min^−1, 55 °C, with a linear gradient of (solvent A) water containing 1 mM ammonium formate and 0.2% formic acid and (solvent B) methanol containing 1 mM ammonium formate and 0.2% formic acid and as follows: 50% B for 1 min, up to 100% B in 4 min, and then maintained at 100% for 2 min. The acquisition was performed in positive Single Reaction Monitoring (SRM) mode (source temperature: 300 °C, nebulizer gas flow rate was 10 L·min^−1, 15 psi, sheath gas flow 7 L·min^−1, temperature 225 °C, capillary 4000 V, nozzle 1500 V). […] Results are expressed as ng·g^−1 for tissues and ng·mL^−1 for plasma.

The target of data set [2] is T1, murine CB1R (Mus musculus, UniProt P47746).
T1 construct: host or cells: HEK293T/17
The data set is described as follows: GloSensor cAMP functional assay in CB1R-transfected HEK293T/17 cells. The data set is classed as cell-based. Here is the method:
GloSensor™ cAMP assay designed by Promega (Charbonnières-les-Bains, France) was used to monitor activation of CB1R. HEK293T/17 cells obtained from the American Type Cell Culture Collection (LGC Promochem, Molsheim, France) were seeded at 30,000 cells per well on poly-D-lysine coated 96-well plates (BD Biosciences, Le Pont de Claix, France). They were grown in Dulbecco’s Modified Eagle Medium (DMEM, Waltham, MA, USA) containing 2 mM glutamax and 10% fetal bovine serum. Twenty-four hours later, cells were transiently co-transfected with 50 ng per well of pcDNA3-mouse CB1R (plasmid #13391 supplied by Addgene, Cambridge, MA, USA) which was a gift from Mary E. Abood (California Pacific Medical Center Research Institute, San Francisco, California) and pGlo™-22F cAMP plasmid-luciferase (100 ng per well) allowing these cells to produce light proportionally to intracellular CB1R-dependent cAMP level. Transfection was performed using the Fugene®HD transfection reagent (Promega) for 24 h according to the manufacturer’s instructions. Mock transfections were performed with the empty vector pcDNA3. Twenty-four hours after transfection, cells were equilibrated for 2 h with a CO2-independent medium (Gibco®, Life Technologies, Courtaboeuf, France) supplemented with the GloSensor™ cAMP reagent before adding tested compounds. When a steady-state basal signal was obtained, cells were incubated for 10 min with 1 µM forskolin (Sigma) at room temperature to enhance the intracellular basal cAMP level. Then increasing concentrations of JM-00266 (0.1 µM to 1 mM) were added in the reaction medium in the presence or absence of anandamide (0.1 µM to 1 µM) and luminescence was measured for 20 min with a Victor 3V plate reader (Perkin Elmer, Courtaboeuf, France). […] When GloSensor™ cAMP assays were carried out in the presence of 0.1 µg·mL^−1 pertussis toxin (Sigma), this compound was added in the incubation medium 24 h before incubation with forskolin. All assays were performed in duplicate and each experiment was repeated three times. Results were expressed as the percentage of forskolin-stimulated luciferase activity. The EC50 values were generated using the Sigma Plot software.

For data set [3], the system named is mice. The data set is described as follows: Food intake in 24-h food-deprived mice. It is filed as in vivo. Particulars: ACEA 1 mg/kg i.p., Rimonabant 10 mg·kg−1, JM-00266 20 mg·kg−1. Here is the method: For food intake experiments, mice were food-deprived for 24 h before being submitted to an i.p. injection of ACEA (1 mg·kg^−1). […] Cumulative food intake was measured every hour over a period of 3 h from refeeding.

Data set [4] has as its system mice. The data set is described as follows: Gastro-intestinal transit (charcoal marker). The data set is classed as in vivo. Particulars: JM-00266 10 mg·kg−1 10 min before anandamide 10 mg·kg−1. The protocol:
Short-term effects of JM-00266 on gastro-intestinal transit were tested as an indicator of peripheral CB1R activity. Transit was measured by administering a non-absorbed marker (10% charcoal suspension in 5% gum arabic) as previously described.

For data set [5], the system named is C57BL/6 wild type mice. Briefly: Oral glucose tolerance test (OGTT) in wild type mice. It is filed as in vivo. The protocol: (§1) To test acute effects of JM-00266 on glucose metabolism and their specificity to CB1R, C57BL/6 wild type mice and CB1R^−/− mice fasted for 6 h were subjected to an oral glucose tolerance test (OGTT, 2 g·kg^−1 glucose) and to an insulin tolerance test (ITT) using 0.5 UI·kg^−1 insulin (Actrapid, Novo Nordisk, La Défense, France) 10 min after i.p. injection of JM-00266 (10 mg·kg^−1) or vehicle. For both tests, glycemia was monitored during 120 min post-injection with a My Life Pura TM glucose meter (Ypsomed, Paris, France) directly on a blood drop from the tail. Corresponding AUC0–2 h were calculated.

Data set [6] deals with C57BL/6 wild type mice. The data set is described as follows: Insulin tolerance test (ITT). To be noted: 10 mg·kg−1 i.p. 10 min before insulin 0.5 UI·kg−1. It is filed as in vivo. The protocol: as §1
Data set [7] relates to CB1R−/− mice. The data set is described as follows: Oral glucose tolerance test (OGTT) in CB1R−/− mice. It is filed as in vivo. Particulars: 10 mg·kg−1 i.p. 10 min before glucose gavage. The protocol: as §1

T1 sequence (P47746 whole entry): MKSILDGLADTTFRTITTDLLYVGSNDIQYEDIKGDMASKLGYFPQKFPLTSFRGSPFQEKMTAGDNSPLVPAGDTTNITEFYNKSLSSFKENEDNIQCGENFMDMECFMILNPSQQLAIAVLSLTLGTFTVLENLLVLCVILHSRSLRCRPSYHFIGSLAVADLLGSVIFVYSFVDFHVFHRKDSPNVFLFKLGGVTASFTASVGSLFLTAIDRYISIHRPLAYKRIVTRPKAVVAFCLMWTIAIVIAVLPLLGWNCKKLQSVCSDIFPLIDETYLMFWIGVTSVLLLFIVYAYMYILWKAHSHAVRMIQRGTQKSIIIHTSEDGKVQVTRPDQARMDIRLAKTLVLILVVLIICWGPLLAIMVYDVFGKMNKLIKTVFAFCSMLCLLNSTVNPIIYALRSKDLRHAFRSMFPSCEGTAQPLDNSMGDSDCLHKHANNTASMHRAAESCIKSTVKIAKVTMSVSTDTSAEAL

One may read the EC50 as the concentration that produces a half-maximal response. Consider `CSc1ccc(C2C(N3C(=O)c4ccccc4C3=O)C(=O)N2c2ccc(SC)cc2)cc1` (stereo not drawn) [JM-00266, 1,4-di-(4-méthylthiophenyl)-3-phthaloylazetidin-2-one], for which the “Plasma clearance compared with Rimonabant” value in data set [1] (intravenous administration) is “slightly higher clearance”. The “Time of peak drug plasma concentration” value amounted to 30 min in data set [1] (i.p. 10 mg·kg−1, DMSO/Tween solution) and 60 min in data set [1] (oral 10 mg·kg−1, dissolved in oil). Besides, the “Maximal drug plasma concentration” value in data set [1] (i.p. 10 mg·kg−1, mean ± SEM) was determined as 378 ± 27 ng/mL; in data set [1] (oral 10 mg·kg−1, mean ± SEM) it was 203 ± 18 ng/mL. Besides, the “Effect on cAMP formation, compound alone” value in data set [2] (HEK293T/17 cells transfected with murine CB1R, 0.1 µM to 1 mM) was “dose-dependent increase in cAMP formation”. In data set [2] (HEK293T/17 cells transfected with murine CB1R, forskolin 1 µM, GloSensor luminescence, read-out: EC50, increase in cAMP formation (inverse agonism)), the concentration giving a half-maximal response (EC50) is 249 µM. Besides, in data set [2] (anandamide 0.1 µM to 1 µM), the “cAMP response with increasing concentrations of anandamide” value is given as “lost”. Also, in data set [2] (pertussis toxin 0.1 µg·mL−1 added 24 h before), the “cAMP response in the presence of pertussis toxin” value is “lost”. Besides, the “Cumulative 3-h food intake, co-administration with ACEA” value in data set [3] is on record as “not observed”. In addition, the “Effect on anandamide-induced slowing down of gastro-intestinal transit” value in data set [4] is given as “abrogated”. In addition, the “Plasma insulin levels during OGTT” value in data set [5] (10 mg·kg−1 i.p.) was “lower than vehicle”. Moreover, the “Glucose tolerance (OGTT) vs vehicle” value in data set [5] (10 mg·kg−1 i.p. 10 min before glucose gavage 2 g·kg−1) is reported as “improved glucose tolerance”; in data set [7], “failed to improve glucose tolerance”. Further, in data set [6], the “Glycemia during ITT (insulin sensitivity)” value was “lower glycemia over time compared to vehicle treated mice”.
